Key:
[1] = target: human Orexin type 2 receptors (Homo sapiens (Human), UniProt O43614); assay: Scintillation Proximity Assay (SPA) binding assay, [3H]EMPA displacement, HEK-hOX2 membranes; settings: for OX2 pKi (SPA binding): Table 2, [3H]EMPA 2 nM; for Ki: Table 1, [3H]EMPA 2 nM, read-out: OX2 pKi (SPA binding) (converted)
[2] = target: human Orexin type 1 receptors (Homo sapiens (Human), UniProt O43613); assay: Scintillation Proximity Assay (SPA) binding assay, [3H]SB-674042 displacement, CHO-hOX1 membranes; settings: for OX1 pKi (SPA binding): Table 2, [3H]SB-674042 2 nM; for Ki: Table 1, [3H]SB-674042 2 nM, read-out: OX1 pKi (SPA binding) (converted)
human Orexin type 1 receptors, sequence (O43613 whole entry): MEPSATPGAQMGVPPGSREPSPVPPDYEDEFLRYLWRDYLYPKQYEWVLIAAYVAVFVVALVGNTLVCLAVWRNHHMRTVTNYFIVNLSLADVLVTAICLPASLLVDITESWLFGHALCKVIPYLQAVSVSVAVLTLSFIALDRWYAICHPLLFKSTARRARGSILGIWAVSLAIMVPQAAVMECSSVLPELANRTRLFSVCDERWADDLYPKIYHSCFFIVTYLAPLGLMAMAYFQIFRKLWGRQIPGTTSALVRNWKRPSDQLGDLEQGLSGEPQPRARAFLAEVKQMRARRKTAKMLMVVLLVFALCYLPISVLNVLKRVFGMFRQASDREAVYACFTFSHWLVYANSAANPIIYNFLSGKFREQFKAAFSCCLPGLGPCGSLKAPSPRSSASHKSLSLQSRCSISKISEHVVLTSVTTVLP

[3] = Measurement of brain fraction unbound (equilibrium dialysis); type: in vitro ADME; settings: pH 7.4, rat brain homogenate, 37° C., read-out: FU brain (%, rat)
Method: Measurement of Brain Fraction Unbound (Equilibrium Dialysis)
Brain fractions unbound were determined using equilibrium dialysis in a 96-well format as described in Kalvass and Maurer, 2002. Brain homogenates were prepared using 2 ml/g CSF surrogate (7.30 g/l NaCl, 186.4 mg/l KCl, 239.9 mg/l MgCl2, 185.2 mg/l CaCl2), and 536.0 mg/l Na2HPO4.7H2O, pH 7.4). Dialysis membranes (12-14-kDA cutoff) obtained from Spectrum Laboratories Inc. (Rancho Dominguez, Calif.) were conditioned in water (HPLC grade) for 60 min, followed by 20 min in 20% ethanol, and 15 min in CSF surrogate.
Assay compound concentrations were 5 μM. Diluted brain homogenate was spiked with the compound of interest, and 150-μl aliquots were loaded into the 96-well equilibrium dialysis apparatus and dialyzed against an equal volume of CSF surrogate. Equilibrium was achieved by incubating the 96-well equilibrium dialysis apparatus in a temperature-controlled incubator at 37° C. for 5 h, using an orbital shaker at 125 rpm. At the end of the incubation period, 50-μl aliquots of brain homogenate and buffer were transferred to a 96-well plate, and the composition in each tube was balanced with control fluid to equalize the brain and buffer volumes. Sample extraction was performed by addition of 400 μl of acetonitrile containing internal standard (rolipram). The samples were then vortex-mixed and centrifuged, and 100 μl of supernatants was transferred into a 96-well plate, diluted with 200 μl of 16% acetonitrile/water, and analyzed by liquid chromatography-tandem mass spectrometry (LC-MS/MS).
The brain unbound fraction (FU brain) was calculated from the ratio of analyte/internal standard peak area ratios determined in buffer versus brain homogenate samples using equation (1), which accounts for the effect of tissue dilution on unbound fraction (Kalvass and Maurer, 2002):
[formula] where D is the dilution factor in brain homogenate and fu-diluted is the measured free fraction of diluted brain tissue. Results

human Orexin type 2 receptors, sequence (O43614 whole entry): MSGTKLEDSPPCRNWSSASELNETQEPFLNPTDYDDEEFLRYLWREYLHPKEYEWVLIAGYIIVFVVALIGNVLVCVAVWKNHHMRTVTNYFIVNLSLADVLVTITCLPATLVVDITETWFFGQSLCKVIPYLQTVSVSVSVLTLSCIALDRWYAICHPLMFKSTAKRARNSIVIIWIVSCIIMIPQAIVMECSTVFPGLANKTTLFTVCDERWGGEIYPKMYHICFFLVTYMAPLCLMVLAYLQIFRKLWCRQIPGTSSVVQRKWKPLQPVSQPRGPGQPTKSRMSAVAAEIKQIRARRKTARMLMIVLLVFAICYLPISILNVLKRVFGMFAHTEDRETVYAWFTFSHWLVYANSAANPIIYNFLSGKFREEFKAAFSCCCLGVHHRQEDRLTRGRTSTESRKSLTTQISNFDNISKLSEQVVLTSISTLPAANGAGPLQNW

| Compound | OX2 pKi (SPA binding) [1] | OX1 pKi (SPA binding) [2] | fraction unbound at 5 h, 5 μM [3] | Ki [1] | Ki [2] |
| --- | --- | --- | --- | --- | --- |
| C[C@@H]1C2CC(C2)N(C(=O)c2nn(C)cc2-c2ncccn2)C1CNc1ccc(C(F)(F)F)cn1 (single isomer, unassigned) [Example 215, N-{[(3R,4S) or (3S,4R)-4-methyl-2-{1-methyl-4-(pyrimidin-2-yl)-1H-pyrazole-3-carbonyl]-2-azabicyclo[3.1.1]heptan-3-yl]methyl}-5-(trifluoromethyl)pyridin-2-amine] | 4.79 | 8.15 | 0.0761 | – | – |
| C[C@@H]1C2CC(C2)N(C(=O)c2nn(C)cc2-c2ncccn2)C1CNc1ccc(C(F)(F)F)cn1 (mixture of isomers) [Example 213, cis-N-({4-methyl-2-[1-methyl-4-(pyrimidin-2-yl)-1H-pyrazole-3-carbonyl]-2-azabicyclo[3.1.1]heptan-3-yl}methyl)-5-(trifluoromethyl)pyridin-2-amine] | 4.39 | 7.91 | 0.0876 | – | – |
| Cc1ccc(-n2nccn2)c(C(=O)N2C3CC(C3)[C@@H](C)C2CNc2ccc(C(F)(F)F)cn2)n1 (single isomer, unassigned) [Example 183, N-{[(3R,4S) or (3S,4R)-4-methyl-2-[6-methyl-3-(2H-1,2,3-triazol-2-yl)pyridine-2-carbonyl]-2-azabicyclo[3.1.1]heptan-3-yl]methyl}-5-(trifluoromethyl)pyridin2-amine] | 5.26 | 8.31 | 0.0256 | – | – |
| Cc1ccc(-n2nccn2)c(C(=O)N2C3CC(C3)[C@@H](C)C2CNc2cnc(C(F)(F)F)cn2)n1 (mixture of isomers) [Example 165, cis-N-({4-methyl-2-[6-methyl-3-(2H-1,2,3-triazol-2-yl)pyridine-2-carbonyl]-2-azabicyclo[3.1.1]heptan-3-yl}methyl)-5-(trifluoromethyl)pyrazin-2-amine] | 4.83 | 7.63 | 0.0477 | – | – |
| C[C@@H]1C2CC(C2)N(C(=O)c2cc(C#N)ccc2-n2nccn2)C1CNc1nc2cccnc2s1 (single isomer, unassigned) [Example 233, 3-[(3R,4S) or (3S,4R)-4-methyl-3-[({[1,3]thiazolo[5,4-b]pyridin-2-yl}amino)methyl]-2-azabicyclo[3.1.1]heptane-2-carbonyl]-4-(2H-1,2,3-triazol-2-yl)benzonitrile] | 5.11 | 8.41 | 0.066 | – | – |
| C[C@@H]1C2CC(C2)N(C(=O)c2cc(F)ccc2-n2nccn2)C1CNc1nc2cccnc2s1 (single isomer, unassigned) [Example 230, N-{[(3R,4S) or (3S,4R)-2-[5-fluoro-2-(2H-1,2,3-triazol-2-yl)benzoyl]-4-methyl-2-azabicyclo[3.1.1]heptan-3-yl]methyl}-[1,3]thiazolo[5,4-b]pyridin-2-amine] | 5.32 | 8.46 | 0.0438 | – | – |
| Cc1ccc(-n2nccn2)c(C(=O)N2C3CC(C3)[C@@H](C)C2CNc2nc3cccnc3s2)n1 (single isomer, unassigned) [Example 186, N-({(3R,4S) or (3S,4R)-4-methyl-2-[6-methyl-3-(2H-1,2,3-triazol-2-yl)pyridine-2-carbonyl]-2-azabicyclo[3.1.1]heptan-3-yl}methyl)-[1,3]thiazolo[5,4-b]pyridin-2-amine] | 5.36 | 8.42 | 0.147 | – | – |
| Cc1ccc(-c2ncccn2)c(C(=O)N2C3CC(C3)[C@@H](C)[C@@H]2COc2ccc(F)cc2)n1 (single isomer, unassigned) [Example 93, (3S,4S or 3R,4R)-3-(4-fluorophenoxymethyl)-4-methyl-2-[6-methyl-3-(pyrimidin-2-yl)pyridine-2-carbonyl]-2-azabicyclo[3.1.]heptane] | – | – | 0.0258 | 407 nM | 1.95 nM |
| Cc1ccc(-n2nccn2)c(C(=O)N2C3CC(C3)[C@H](C)C2COc2ccc(F)cc2)n1 (single isomer, unassigned) [Example 105, (3S,4S or 3R,4R)-3-[(4-fluorophenoxy)methyl]-4-methyl-2-[6-methyl-3-(2H-1,2,3-triazol-2-yl)pyridine-2-carbonyl]-2-azabicyclo[3.1.1]heptane] | – | – | 0.0116 | 1320 nM | 6.31 nM |
| Cc1ccc(-n2nccn2)c(C(=O)N2C3CC(C3)[C@@H](C)C2CNc2cnc(C(F)(F)F)cn2)n1 (single isomer, unassigned) [Example 167, N-{[(3R,4S) or (3S,4R)-4-methyl-2-[6-methyl-3-(2H-1,2,3-triazol-2-yl)pyridine-2-carbonyl]-2-azabicyclo[3.1.1]heptan-3-yl]methyl}-5-(trifluoromethyl)pyrazin-2-amine] | 5.13 | 8.12 | 0.0593 | – | – |
